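Dose response: 5 concentrations. Exposure: 48 h. Format: 96-well plates. Endpoint: linear interpolation; highest concentration if not reached. GI50 marks 50% less growth.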 Calls of active or inactive are those of the source. Rule as the data show it: active = GI50 up to about 1.1 µM and inactive = higher.
Legend:
Test in all cases: NCI anticancer screen, dose series, 48 h
OVCAR-3 = system: OVCAR-3
HT-29 = system: HT-29
HCT-15 = system: HCT-15
LOX IMVI = system: LOX IMVI
UACC-257 = system: UACC-257
OVCAR-8 = system: OVCAR-8
COLO 205 = system: COLO 205
SNB-19 = system: SNB-19
EKVX = system: EKVX
K562 = system: K562
SW-620 = system: SW-620
MOLT-4 = system: MOLT-4
A549 = system: A549
ACHN = system: ACHN
Malme-3M = system: Malme-3M
SK-OV-3 = system: SK-OV-3
SF-295 = system: SF-295
KM12 = system: KM12
SR = system: SR
SN12C = system: SN12C
786-0 = system: 786-0
DU-145 = system: DU-145
CCRF-CEM = system: CCRF-CEM
RPMI-8226 = system: RPMI-8226
M14 = system: M14
NCI-H226 = system: NCI-H226
NCI-H460 = system: NCI-H460
MCF7 = system: MCF7
T47D = system: T47D
HOP-92 = system: HOP-92
HOP-62 = system: HOP-62
OVCAR-4 = system: OVCAR-4
SF-268 = system: SF-268
NCI-H522 = system: NCI-H522
TK-10 = system: TK-10
HL-60 = system: HL-60
SK-MEL-28 = system: SK-MEL-28
OVCAR-5 = system: OVCAR-5
NCI/ADR-RES = system: NCI/ADR-RES
MDA-N = system: MDA-N
SK-MEL-2 = system: SK-MEL-2
U-251 = system: U-251
NCI-H23 = system: NCI-H23
PC-3 = system: PC-3
IGROV-1 = system: IGROV-1
SK-MEL-5 = system: SK-MEL-5
UACC-62 = system: UACC-62
Hs-578T = system: Hs-578T
BT-549 = system: BT-549
UO-31 = system: UO-31
HCT-116 = system: HCT-116
MDA-MB-435 = system: MDA-MB-435
SNB-75 = system: SNB-75
CAKI-1 = system: CAKI-1
SF-539 = system: SF-539
RXF 393 = system: RXF 393
HCC 2998 = system: HCC 2998
MDA-MB-231 = system: MDA-MB-231
A498 = system: A498

Measured: GI50

CC1(C)CC2C(/C1=N/O)C1(C)CCCC2(C)C1O (stereo not drawn)
> 100 µM: HCT-15
inactive: OVCAR-3 > 100 µM | HT-29 > 100 µM | LOX IMVI > 100 µM | UACC-257 > 100 µM | OVCAR-8 > 100 µM | COLO 205 > 100 µM | SNB-19 > 100 µM | EKVX > 100 µM | K562 > 100 µM | SW-620 > 100 µM | MOLT-4 > 100 µM | A549 > 100 µM | ACHN > 100 µM | Malme-3M > 100 µM | SK-OV-3 > 100 µM | SF-295 > 100 µM | KM12 > 100 µM | SR > 100 µM | SN12C > 100 µM | 786-0 > 100 µM | DU-145 > 100 µM | CCRF-CEM > 100 µM | RPMI-8226 > 100 µM | M14 > 100 µM | NCI-H226 > 100 µM | NCI-H460 > 100 µM | MCF7 > 100 µM | T47D > 100 µM | HOP-92 > 100 µM | HOP-62 > 100 µM | OVCAR-4 > 100 µM | SF-268 > 100 µM | NCI-H522 > 100 µM | TK-10 > 100 µM | HL-60 > 100 µM | SK-MEL-28 > 100 µM | OVCAR-5 > 100 µM | NCI/ADR-RES > 100 µM | MDA-N > 100 µM | SK-MEL-2 > 100 µM | U-251 > 100 µM | NCI-H23 > 100 µM | PC-3 > 100 µM | IGROV-1 > 100 µM | SK-MEL-5 > 100 µM | UACC-62 > 100 µM | Hs-578T > 100 µM | BT-549 > 100 µM | UO-31 > 100 µM | HCT-116 > 100 µM | MDA-MB-435 > 100 µM | SNB-75 > 100 µM | CAKI-1 > 100 µM

COc1cc(/C=N/Nc2nnc3c4ccccc4c4ncccc4c3n2)cc(OC)c1OC
active: NCI-H460 0.728 µM | IGROV-1 1.04 µM
inactive: OVCAR-3 3.53 µM | HT-29 2.02 µM | UACC-257 1.97 µM | OVCAR-8 2.23 µM | SNB-19 6.71 µM | EKVX 9.82 µM | K562 3.17 µM | MOLT-4 2.9 µM | A549 2.79 µM | SF-539 3.71 µM | ACHN 5.85 µM | SF-295 3.49 µM | KM12 9.29 µM | SR 3.37 µM | RXF 393 4.72 µM | 786-0 5.83 µM | DU-145 3.31 µM | CCRF-CEM 2.63 µM | M14 8.51 µM | NCI-H226 3.01 µM | T47D 1.21 µM | OVCAR-4 6.46 µM | SF-268 6.58 µM | NCI-H522 2.47 µM | TK-10 4.28 µM | HL-60 3.62 µM | OVCAR-5 5.13 µM | MDA-N 1.61 µM | U-251 4.21 µM | NCI-H23 2.57 µM | SK-MEL-5 4.31 µM | Hs-578T 4.74 µM | BT-549 6.22 µM | UO-31 3.39 µM | MDA-MB-435 5.12 µM | SNB-75 3.82 µM

CC(C)(C)[Si](C)(C)OCC#C[C@@]1(O)CCCCC1CC(Sc1ccccc1)Sc1ccccc1 (stereo partly drawn)
14.9 µM: HCT-15
inactive: OVCAR-3 12.9 µM | HT-29 14 µM | LOX IMVI 17.3 µM | UACC-257 15.5 µM | OVCAR-8 16.5 µM | COLO 205 16.3 µM | SNB-19 15.4 µM | EKVX 16.4 µM | HCC 2998 15.6 µM | K562 14.2 µM | SW-620 15.1 µM | MOLT-4 11.6 µM | A549 14.9 µM | ACHN 14.4 µM | Malme-3M 16.1 µM | SK-OV-3 15.7 µM | SF-295 14.7 µM | KM12 21.9 µM | SR 14.8 µM | RXF 393 12.5 µM | SN12C 11.6 µM | 786-0 13.5 µM | DU-145 15.8 µM | CCRF-CEM 11.8 µM | RPMI-8226 15.3 µM | M14 18.2 µM | NCI-H226 15.3 µM | NCI-H460 15.2 µM | MCF7 10.2 µM | T47D 10.7 µM | HOP-92 15.6 µM | MDA-MB-231 16.9 µM | HOP-62 16.9 µM | OVCAR-4 13.9 µM | NCI-H522 11.4 µM | TK-10 17.9 µM | HL-60 18.8 µM | SK-MEL-28 16.3 µM | OVCAR-5 14.2 µM | NCI/ADR-RES 15 µM | MDA-N 18.2 µM | SK-MEL-2 15.8 µM | U-251 13.3 µM | NCI-H23 14.9 µM | PC-3 13.5 µM | IGROV-1 16.1 µM | SK-MEL-5 15.7 µM | UACC-62 12.9 µM | BT-549 19 µM | UO-31 13.9 µM | HCT-116 11.8 µM | MDA-MB-435 15.7 µM | SNB-75 14.8 µM | CAKI-1 10.7 µM | A498 16.3 µM

Reference: ChEMBL document CHEMBL1201862, “PubChem BioAssay data set” (2004)
